# Source: ChEMBL document CHEMBL3507680, “University of Dundee, Gates Library screen for HepG2 cell viability”
# Assay: Human HepG2 cell viability assay in 384 well format
# Format: toxicity, cell-based
# Design: dose 125 nL, time 70.5 hour; concentration not given beside the values
# Details: HepG2 cells, read-out: Inhibition
row,Compound,cytotoxicity at 70.5 h
1,CN(C)C(=O)c1nc(CN2CC(c3ccccc3)CC2=O)no1 (centres undefined),10.4%
2,Cc1nc(C2CCCN(C(=O)c3ccc(N4CCCC4)nc3)C2)no1 (centres undefined),1.03%
3,CC(C)OCCCNC(=O)CS(=O)(=O)Cc1cccc(Cl)c1,-10.6%
4,O=C(Nc1ccc(F)cc1)NC1(CCO)CCOCC1,-7.29%
5,Cn1c(=O)c2sccc2n(Cc2ccccc2)c1=O,2.6%
6,CCCn1ccnc1CN1CCCC1c1ccccn1 (centres undefined),-4.45%
7,Cc1ccc(S(=O)(=O)Nc2ccc(N3CCOCC3)cn2)cc1,-3.69%
8,O=C1NC2(CCN(CC(=O)N3CCOCC3)CC2)Nc2ccccc21,-2.3%
9,CCC(C)CNC(=O)[C@@H]1CCCN1c1nccc(Nc2ccccc2)n1 (some centres undefined),1.56%
10,NC1CCCCN(Cc2cc(-c3ccccc3OC(F)(F)F)no2)C1 (centres undefined),-8.03%
11,O=C1CO[C@@H]2CN(Cc3cccs3)C[C@H]2N1Cc1cccnc1,-10.9%
12,O=C(CCNc1ncccn1)N1CCN(c2nccs2)CC1,-16.3%
13,O=C(c1cc2c([nH]c1=O)CCC2)N1CCCCCC1c1ccncc1 (centres undefined),-6.24%
14,NC(=O)C1CCCN1Cc1ccccc1NC(=O)CC(F)(F)F (centres undefined),-3.67%
15,CCn1ccnc1CN1CCN(CC(O)c2ccc(OC)cc2)CC1 (centres undefined),12.3%
16,Cc1nc(CN2CCCC(NCCc3ccccc3Cl)C2)no1 (centres undefined),-6.15%
17,Cc1nc(CN2CCC3(CCCN(Cc4ccoc4)C3)C2=O)cs1 (centres undefined),11.4%
18,CCn1nc(C)c(C(=O)N2C[C@@H](CN(C)C)[C@@H](CO)C2)c1C,0.473%
19,COCCN1CC[C@H](OC)[C@@H]1Cc1ccccc1,-0.421%
20,COc1ccc(/C=C/CN2CCN(c3nccnc3C)CC2)cc1,-5.85%
21,CC(C)N(Cc1ccccc1)Cc1nnsc1Cl,-8.66%
22,CCc1nc2c(NCC3COc4c(cccc4OC)C3)ncnc2o1 (centres undefined),-4.9%
23,CCNc1cc2c(nn1)CCN(C(=O)c1cccnc1N(C)C)C2,-1.46%

row,Compound,cytotoxicity at 70.5 h
1,COc1cccc2c1OCC(CNC(=O)Cn1ccnc1C)C2 (centres undefined),-0.227%
2,COc1cccc(-c2noc(C3CCN(Cc4ccccc4C)C3)n2)c1 (centres undefined),13.9%
3,COCc1cc(N2CCOCC2)n2nccc2n1,-3.4%
4,CCc1ccccc1NC(=O)CCc1cnn(C)c1,-11.3%
5,CSc1ccc(C(=O)N2C[C@H]3CC[C@@H]2CN(Cc2ccccc2)C3)cc1,-0.304%
6,COc1cc(C(=O)NC(C)C)nc2c(C)cc(F)cc12,23.4%
7,Cc1ccccc1C(=O)NCC(=O)NCc1ccccn1,15.5%
8,O=C(NCc1cnc2n1CCN(Cc1ccsc1)CC2)C1CCC1,-10.8%
9,Cc1cnn(CC2CCCN2c2ncnc3ccccc23)c1 (centres undefined),9.14%
10,Cc1ccc(-c2nnc(CCC(=O)NCc3cn(C)nc3C)o2)s1,-9.67%
11,CCN(CC)C(=O)Cn1c(C)cc2nc(SC)n(CC(C)C)c(=O)c21,-6.31%
12,CN(Cc1coc(-c2ccccc2)n1)CC1CCCN1c1cccnn1 (centres undefined),4.57%
13,Cn1ccnc1-c1cn(CCc2nnc(N)s2)nn1,43.6%
14,CCN1CCOCC12CCN(C(=O)C1CCCC1)CC2,-0.25%
15,Cc1noc(C2CCCN(C(=O)c3ccc(F)cc3F)C2)n1 (centres undefined),-8.76%
16,CCS(=O)(=O)N1C[C@H]2CC[C@@]3(N=C(C)N(CC(C)C)C3=O)[C@H]2C1,-10.8%
17,CC(Cn1cccn1)NC(=O)NCc1ccnc(OC2CCCC2)c1 (centres undefined),-8.79%
18,O=S(=O)(C1CC1)N1C[C@H]2CCC[C@@]2(COc2ccccn2)C1,-19.4%
19,c1ccc(NCc2ccsc2)c(Cn2cncn2)c1,-15.1%
20,COCCN1CCO[C@@H]2CN(S(=O)(=O)c3cccnc3)C[C@@H]2C1,3.84%
21,COC(=O)c1cc(NC(=O)NCC2CCS(=O)(=O)C2)ccc1Cl (centres undefined),-0.58%
22,CCn1cc(NC(=O)NCC(C)N(C)C2CC2)cn1 (centres undefined),-4.71%
23,COCC1CN(CC2CCOCC2)Cc2cn(CC3CCCC3)nc21 (centres undefined),-7.67%

row,Compound,cytotoxicity at 70.5 h
1,Cc1nc(-c2ccnn2C)cc(C2CCCN(S(C)(=O)=O)C2)n1 (centres undefined),-6.24%
2,CCCn1ccnc1CN1CC[C@@H](NC(=O)c2cccnc2)[C@H](O)C1,-16.3%
3,COc1c(C)cnc(CN2CCCCC2Cn2nc(C)nc2C)c1C (centres undefined),16.8%
4,CN1CCCN(C[C@@H]2CN(C(=O)CCc3cn[nH]c3)C[C@@H]2CO)CC1,-3.81%
5,Cc1cccc(C(=O)NC(CN2CCCC2=O)c2ccccc2)n1 (centres undefined),0.515%
6,CC(C)(C(=O)NCCCc1nc2ccccc2[nH]1)n1cc(Cl)cn1,-5.61%
7,Cc1nc(C2CCCN(C(=O)c3ccoc3)C2)no1 (centres undefined),-7%
8,O=C(Cc1cccnc1)N1CCC2(CC1)CCN(C1CCOC1)C2 (centres undefined),8.42%
9,COc1cc(N2CCC3(C2)CN(c2cccnc2)C(=O)CN3C)ncn1 (centres undefined),-4.78%
10,Cc1cc(CC(=O)N2CCN(C)[C@@H]3CS(=O)(=O)C[C@@H]32)ccc1F,-4.31%
11,CN(Cc1ccccc1O)C(=O)Nc1cc(F)cc(N2CCCC2)c1,-7.37%
12,O=C(NCCCO)Nc1ccccc1,3.04%
13,CC(NC(=O)NCc1ccc(Cl)s1)c1ccccn1 (centres undefined),-20%
14,Cc1nc2c(c(N3CCN(Cc4ccco4)CC3)n1)CCNCC2,-4.87%
15,CCn1cc(S(=O)(=O)N2CCCCCC2c2cc(C)no2)cn1 (centres undefined),0.308%
16,O=C(Cn1cccn1)NCC1CCN(Cc2cc3ccccc3[nH]2)C1 (centres undefined),-14.4%
17,CC(C)c1nc(C2CCCN2C(=O)CN(C)Cc2ccccc2)no1 (centres undefined),11.3%
18,O=C1[C@H]2CN(Cc3ccccc3)C[C@H]2CN1CCN1CCCC1,-8.49%
19,COCCNc1cc(-c2ccccc2C(N)=O)c2cc[nH]c2n1,-10.4%
20,CN(Cc1cccnc1)[C@@H]1CN(C(=O)c2ccno2)[C@@H]2CCCO[C@H]12,-5.28%
21,CN(C)Cc1cc(=O)n2c(n1)CN(C(=O)Cc1cccs1)CCC2,1.23%
22,CCn1cc2c(n1)CN(S(=O)(=O)c1ccc(C)cc1)CC2COC (centres undefined),-1.69%
23,O=C1CCCC2=C1C(c1cccc(F)c1F)Nc1nonc1N2 (centres undefined),1.2%

row,Compound,cytotoxicity at 70.5 h
1,CC(C)Oc1cccc(CC(=O)N(CC(N)=O)C2CCCC2)c1,-6.57%
2,Cc1cccc(NC(=O)[C@@H]2CCCN2Cc2cnc3ccccn23)n1,1.07%
3,CS(=O)(=O)NCCCN1CCCC1Cc1ccccc1 (centres undefined),4.23%
4,Cc1nc(C(C)(C)NCc2ncc(C(C)C)o2)sc1C,-5.11%
5,Cn1c(-c2ccccc2Cl)nc2cc(C(=O)NCCOCCO)cnc21,-6.61%
6,CCN1CC[C@@H]2OC[C@H](C(=O)NCc3cccs3)C[C@@H]2C1,45.7%
7,O=C1NCCCc2[nH]c(C3CCN(C(=O)C4CC4)CC3)nc21,11.6%
8,O=C(CC1CCN(CCc2ccccc2)CC1)N1CCCOCC1,-1.73%
9,Cc1cc(C2CN(CC(=O)NCc3ccco3)CCO2)ccc1F (centres undefined),-11.9%
10,Cc1cc(C(=O)N(C)C(C)CC(C)C)on1 (centres undefined),-1.57%
11,COc1ccc(CN2CCC3(CCCN(C)C3=O)C2)c(Cl)c1OC (centres undefined),0.156%
12,Cc1cncc(C2CCCN(Cc3ccncc3)C2)n1 (centres undefined),13.6%
13,O=C(Cc1noc(C(=O)NCCO)n1)Nc1cccc(C(F)(F)F)c1,-22.4%
14,OC(CN1CCC(c2ccn[nH]2)CC1)c1ccc(F)cc1F (centres undefined),-5.74%
15,CC(C)[C@@H]1CN(C(=O)C2(c3ccccc3)CCN(C)CC2)C[C@H]1C(=O)O,-5.2%
16,Cc1noc(C)c1CN1CCO[C@H]2CN(Cc3cnn(C)c3)C[C@H]21,-4.66%
17,CCCc1nnc(NC(=O)NC2CCOc3ccccc32)s1 (centres undefined),-4.65%
18,NC(=O)C1(CNCc2csc(-c3cccs3)n2)CCOCC1,-6.81%
19,O=C(c1ccccc1F)N1CCN(CCCn2cncn2)CC1,-5.46%
20,CCOCC(=O)NC(C#N)c1cnn(-c2ccccc2)c1 (centres undefined),-9.95%
21,CC(NCc1cnc(C2CCC2)s1)c1ccc(-n2cncn2)cc1 (centres undefined),-5.3%
22,CC1CCCN(CCCNC(=O)Cc2csc(-c3ccoc3)n2)C1 (centres undefined),-3.83%
23,CCc1csc(C2CCCN(C(=O)C3=NN(CC)C(=O)CC3)C2)n1 (centres undefined),3.39%

row,Compound,cytotoxicity at 70.5 h
1,CNC(=O)[C@@H]1C[C@H]2CN(Cc3csc(C)n3)C[C@H]2N1C(C)C,-4.84%
2,CN(C)c1ccc(C(=O)N(Cc2ccncc2)CC2CCCO2)nn1 (centres undefined),-4.51%
3,Cc1cc(C(=O)NS(=O)(=O)Cc2ccon2)c(C)o1,-3.93%
4,COc1cc(C)cc(-c2nc3c([nH]2)CCNC3)c1OC,9.79%
5,Cc1ccnc(C(NC(=O)c2sc(C)nc2C)C2CC2)n1 (centres undefined),-2.09%
6,Cc1ccc(S(C)(=O)=O)cc1C(=O)NS(=O)(=O)c1cccs1,-5.12%
7,CSc1cccc(NC(=O)Nc2c(O)oc3ccccc3c2=O)c1,-11.5%
8,Fc1cnc(N2CCOCC3(CCCN(c4nncs4)C3)C2)nc1 (centres undefined),-19.9%
9,O=C(N1CCCC1)N1CCn2c(Cn3cccn3)cnc2C1,-0.231%
10,Cc1cccc(CN2CCc3ncnc(C)c3CC2)n1,-2.78%
11,Cc1n[nH]c(C)c1C1CCCN1C(=O)NCC(=O)NC(C)(C)C (centres undefined),-2.7%
12,Cc1ccc(NC(=O)NCC(c2cnn(C)c2)N(C)C)c(C)c1 (centres undefined),-11%
13,O=C(CC1COCCN1)N1CCC2(CCc3ccccc32)CC1 (centres undefined),8.47%
14,Cc1noc(NC(=O)c2cccc(Br)c2)n1,-0.644%
15,CCCNC(=O)NCc1nc(C)c(C)o1,7.79%
16,Cc1cc(-c2cc(F)ccc2C(=O)O)nc(C2CCCN(C)C2)n1 (centres undefined),2.71%
17,O=C(c1ncoc1C1CCCO1)N1CCC2(CCCCC2)CC1 (centres undefined),-3.26%
18,COCCn1ccnc1CN1CCc2[nH]cnc2C1c1cccc(O)c1 (centres undefined),-14.3%
19,CCC1CN(CC(=O)NCCN2CCCCC2)c2ccccc2S1 (centres undefined),-3.08%
20,Cc1nnc2ccc(NCC3(N4CCCCC4)CCOCC3)nn12,-4.4%
21,COCCCN(C)C1CCCN(Cc2noc(C)n2)C1 (centres undefined),6.68%
22,Cc1cnc(N2CC3(CCN(C(=O)c4ccoc4)C3)C2)nc1,-2.31%
